Earlier results, collected in patent US6682747B1 (Boehringer Ingelheim Pharma KG, priority 1998, dated 2004).

Details: buffered aqueous systems, pH 2-4

solubility: less than 0.5 μg/ml
Structure (SMILES): Cc1cnc(NC(=O)C2=C(O)c3ccccc3S(=O)(=O)N2C)s1 [meloxicam]
